The values below come from publication PMC10778198, “First-in-Human Dose-Escalation Study of the Novel Oral Depsipeptide Class I-Targeting HDAC Inhibitor Bocodepsin (OKI-179) in Patients with Advanced Solid Tumors” (Cancers, 2023).

Where two headings read alike, the source gives them in different places. Where only a bound is given, the exact number is not on record here.

Data set [1] in a line: plasma pharmacokinetics by LC-MS/MS in patients. The class given is in vivo, human. The note with it: for Tmax: read-out: Tmax of OKI-006 (Free). The procedure: Blood samples were collected immediately prior to the first dose on cycle 1 and day 1, and then at 0.25, 0.5, 1, 2, 4, 8, and 24 h after taking OKI-179 on days 1 and 15. Additional samples were collected pre-dose and 2 and 4 h after OKI-179 administration on day 18 in later cohorts. Blood samples were stabilized with sodium fluoride and formic acid immediately after collection to arrest the additional conversion of the prodrug OKI-179 to OKI-006. Plasma was further stabilized using ascorbic acid prior to low-temperature storage.
Plasma concentrations of OKI-179 and OKI-006 were analyzed using validated liquid chromatography-mass spectrometry (LC-MS/MS) (Quintara Discovery Inc., Hayward, CA, USA). OKI-006 contains a free thiol moiety that can reversibly react with endogenous molecules in the blood and tissue, resulting in “bound” OKI-006. The unreacted OKI-006 is considered “free”. As bound OKI-006 can reversibly convert to free OKI-006 in vivo, both the free and “total” (free plus bound) concentrations of OKI-006 are considered pharmacologically relevant and were therefore quantified as part of this study. Bioanalytically, the total OKI-006 was measured by chemically converting all bound OKI-006 to free OKI-006 prior to analysis using the free OKI-006 bioanalytical method.
The AUClast was calculated from time zero to the time of the last quantifiable concentration for OKI-179, free OKI-006, and total OKI-006.

The subject of a further data set is HDAC1. Details: method as in PMID 34965958. The note with it: cell-free; cited from earlier work.
The test system of a further data set is HDAC2. Also on record: method as in PMID 34965958. The note with it: cell-free; cited from earlier work.
A further data set has as its system HDAC3. Also on record: method as in PMID 34965958. The conditions noted are these: cell-free; cited from earlier work.
The test system of a further data set is HDAC8. Details: method as in PMID 34965958. The note with it: cell-free; cited from earlier work.
The next data set deals with Class IIa HDACs. Details: method as in PMID 34965958. The conditions noted are these: cited from earlier work.
Setting [2] is: OKI-179 300-mg 5:2, Cycle 1 Day 1, geometric mean.
[3] abbreviates: OKI-179 300-mg 5:2, Cycle 1 Day 15, geometric mean.

Regarding `CC(C)[C@@H]1NC(=O)C(C)(C)NC(=O)c2csc(n2)CNC(=O)C[C@@H](/C=C/CCS)OC1=O` [OKI-006], the “AUClast of OKI-006 (Free)” value worked out at 2790 ng·h/mL in data set [1] (setting [2]) and 3180 ng·h/mL in data set [1] (setting [3]). In addition, the figures for the “MRAUC, OKI-006 (Free) to OKI-179 metabolite ratio based on AUClast” value in data set [1] (setting [2]) and in data set [1] (setting [3]) were 13.3 and 10.3, respectively. Besides, the “Cmax of OKI-006 (Free)” value in data set [1] (setting [3]) was 2220 ng/mL. Besides, the “Cmax and AUC versus preclinical threshold for efficacy” value in data set [1] (OKI-179 doses of 200 mg or greater) was “exceeded the preclinical threshold for efficacy”. Moreover, the Tmax in data set [1] (human, plasma, oral, 300 mg, OKI-179 300-mg 5:2, Cycle 1 Day 1, median) came to 41.5 min; in data set [1] (human, plasma, oral, 300 mg, OKI-179 300-mg 5:2, Cycle 1 Day 15, median) it was 56 min. The half-life in data set [1] (human, plasma, oral, 300 mg, OKI-179 300-mg 5:2, Cycle 1 Day 15, median, read-out: t1/2 of OKI-006 (Free) (converted)) was 206 min. Besides, the half-inhibitory concentration (IC50) in the data set on HDAC1 is 1.2 nM; with HDAC2, 2.4 nM; in the data set with HDAC3, 2 nM; in the data set on HDAC8, 47 nM; in the data set with Class IIa HDACs it was over 1000 nM.

Broadly, the Tmax is the time from dosing to the highest level. What is called IC50 is the concentration needed to halve the response being measured.
